Measurements as given in the supplement of paper PMC11208160.

Assay: recombinant UMI read abundance after kanamycin selection (control-corrected) (log10(CPM+1)); higher = more efficient recombination; extreme values may be limits of the assay; sequences stand for … in AGTGCAGAGAAAATCGGCCAGTTTTCTCTGCCTGCAGTCCGCATGCCGTGGGACCCCTTGGGTTCTAACCTGTTGCCTAGATTTATGCAGCGGACTGCCTTTCTCCCAAAGTGATAAACCGG…AGGTTGGTTTCACT; site = the 11-nt donor
Summary of the method: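 Reported values are log10(CPM+1) from a pooled Escherichia coli screen of donor and donor-binding-loop pairs for the IS621 bridge recombinase. Selection used IPTG (0.07 mM) plus kanamycin, against unselected plating, each in two replicates. Recombinant UMIs were amplified across the donor–target junction, sequenced, converted to CPM, averaged over replicates and scaled by control-derived factors.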
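Also: IS621 bridge recombinase in Escherichia coli cells against a fixed T5 target plasmid.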

| Sequence | recombinant UMI read abundance (log10) |
| --- | --- |
| TAGACGCCATGGACCGGTTTTCCCGGTAATCCGTATTTGTG (site TAGACGCCTCA) | 0.00987 |
| TAGCAGACATGGACCGGTTTTCCCGGTAATCCGTATTTGGT (site TAGCAGACTAC) | 0.868 |
| TAGCAGGCATGGACCGGTTTTCCCGGTAATCCGTATTTGCT (site TAGCAGGCTAG) | 1.19 |
| TAGCCTACATGGACCGGTTTTCCCGGTAATCCGTATTTGGT (site TAGCCTACTAC) | 0.00532 |
| TAGCCTACATGGACCGGTTTTCCCGGTAATCCGTATTTGGT (site TAGCCTCCTAC) | 0.0181 |
| TAGCCTACATGGACCGGTTTTCCCGGTAATCCGTATTTGGT (site TAGCCTGCTAC) | 0.0107 |
| TAGCCTACATGGACCGGTTTTCCCGGTAATCCGTATTTGGT (site TAGCCTTCTAC) | 0.0222 |
| TAGCCTTCATGGACCGGTTTTCCCGGTAATCCGTATTTGGC (site TAGCCTTCTAC) | 0.00487 |
| TAGCCTTCATGGACCGGTTTTCCCGGTAATCCGTATTTGGC (site TAGCCTTCTCC) | 0.0163 |
| TAGCCTTCATGGACCGGTTTTCCCGGTAATCCGTATTTGGC (site TAGCCTTCTGC) | 0 |
| TAGCCTTCATGGACCGGTTTTCCCGGTAATCCGTATTTGGC (site TAGCCTTCTTC) | 0.0129 |
| TAGCCTTCATGGACCGGTTTTCCCGGTAATCCGTATTTGTT (site TAGCCTTCTAA) | 1.08 |
| TAGCCTTCATGGACCGGTTTTCCCGGTAATCCGTATTTGTT (site TAGCCTTCTAC) | 0.0119 |
| TAGCCTTCATGGACCGGTTTTCCCGGTAATCCGTATTTGTT (site TAGCCTTCTAG) | 0.0127 |
| TAGCCTTCATGGACCGGTTTTCCCGGTAATCCGTATTTGTT (site TAGCCTTCTAT) | 0.00427 |
| TAGCGCGCATGGACCGGTTTTCCCGGTAATCCGTATTTGAC (site TAGCGCGCTGT) | 2.03 |
| TAGCGGTCATGGACCGGTTTTCCCGGTAATCCGTATTTGTT (site TAGCGGTCTAA) | 1.27 |
| TAGCTAGCATGGACCGGTTTTCCCGGTAATCCGTATTTGAA (site AAGCTAGCTTT) | 0.0472 |
| TAGCTAGCATGGACCGGTTTTCCCGGTAATCCGTATTTGAA (site CAGCTAGCTTT) | 0.178 |
| TAGCTAGCATGGACCGGTTTTCCCGGTAATCCGTATTTGAA (site GAGCTAGCTTT) | 0 |
| TAGCTAGCATGGACCGGTTTTCCCGGTAATCCGTATTTGAA (site TAACTAGCTTT) | 0.822 |
| TAGCTAGCATGGACCGGTTTTCCCGGTAATCCGTATTTGAA (site TACCTAGCTTT) | 0.015 |
| TAGCTAGCATGGACCGGTTTTCCCGGTAATCCGTATTTGAA (site TAGATAGCTTT) | 0.0135 |

| Sequence | recombinant UMI read abundance (log10) |
| --- | --- |
| TAGCTAGCATGGACCGGTTTTCCCGGTAATCCGTATTTGAA (site TAGCAAGCTTT) | 0.00493 |
| TAGCTAGCATGGACCGGTTTTCCCGGTAATCCGTATTTGAA (site TAGCCAGCTTT) | 0.0109 |
| TAGCTAGCATGGACCGGTTTTCCCGGTAATCCGTATTTGAA (site TAGCGAGCTTT) | 0.0252 |
| TAGCTAGCATGGACCGGTTTTCCCGGTAATCCGTATTTGAA (site TAGCTAACTTT) | 0.0471 |
| TAGCTAGCATGGACCGGTTTTCCCGGTAATCCGTATTTGAA (site TAGCTACCTTT) | 0.0202 |
| TAGCTAGCATGGACCGGTTTTCCCGGTAATCCGTATTTGAA (site TAGCTAGCTAT) | 0.502 |
| TAGCTAGCATGGACCGGTTTTCCCGGTAATCCGTATTTGAA (site TAGCTAGCTCT) | 0.00536 |
| TAGCTAGCATGGACCGGTTTTCCCGGTAATCCGTATTTGAA (site TAGCTAGCTGT) | 1.28 |
| TAGCTAGCATGGACCGGTTTTCCCGGTAATCCGTATTTGAA (site TAGCTAGCTTA) | 0.00377 |
| TAGCTAGCATGGACCGGTTTTCCCGGTAATCCGTATTTGAA (site TAGCTAGCTTC) | 0.504 |
| TAGCTAGCATGGACCGGTTTTCCCGGTAATCCGTATTTGAA (site TAGCTAGCTTG) | 0.0037 |
| TAGCTAGCATGGACCGGTTTTCCCGGTAATCCGTATTTGAA (site TAGCTAGCTTT) | 0.858 |
| TAGCTAGCATGGACCGGTTTTCCCGGTAATCCGTATTTGAA (site TAGCTATCTTT) | 0.588 |
| TAGCTAGCATGGACCGGTTTTCCCGGTAATCCGTATTTGAA (site TAGCTCGCTTT) | 0.0026 |
| TAGCTAGCATGGACCGGTTTTCCCGGTAATCCGTATTTGAA (site TAGCTGGCTTT) | 0.0168 |
| TAGCTAGCATGGACCGGTTTTCCCGGTAATCCGTATTTGAA (site TAGCTTGCTTT) | 0.00961 |
| TAGCTAGCATGGACCGGTTTTCCCGGTAATCCGTATTTGAA (site TAGGTAGCTTT) | 0.0179 |
| TAGCTAGCATGGACCGGTTTTCCCGGTAATCCGTATTTGAA (site TAGTTAGCTTT) | 0.0249 |
| TAGCTAGCATGGACCGGTTTTCCCGGTAATCCGTATTTGAA (site TATCTAGCTTT) | 0.0236 |
| TAGCTAGCATGGACCGGTTTTCCCGGTAATCCGTATTTGAA (site TCGCTAGCTTT) | 0.00871 |
| TAGCTAGCATGGACCGGTTTTCCCGGTAATCCGTATTTGAA (site TGGCTAGCTTT) | 0.0087 |
| TAGCTAGCATGGACCGGTTTTCCCGGTAATCCGTATTTGAA (site TTGCTAGCTTT) | 0.00459 |
| TAGCTGACATGGACCGGTTTTCCCGGTAATCCGTATTTGCG (site TAGCTGACTCG) | 1.5 |

| Sequence | recombinant UMI read abundance (log10) |
| --- | --- |
| TAGGAATCATGGACCGGTTTTCCCGGTAATCCGTATTTGCA (site TAGGAATCTAG) | 1.62 |
| TAGGAATCATGGACCGGTTTTCCCGGTAATCCGTATTTGCA (site TAGGAATCTCG) | 1.64 |
| TAGGAATCATGGACCGGTTTTCCCGGTAATCCGTATTTGCA (site TAGGAATCTGG) | 0.896 |
| TAGGAATCATGGACCGGTTTTCCCGGTAATCCGTATTTGCA (site TAGGAATCTTG) | 2.82 |
| TAGGAATCATGGACCGGTTTTCCCGGTAATCCGTATTTGTG (site TAGGAATCTCA) | 3.2 |
| TAGGAATCATGGACCGGTTTTCCCGGTAATCCGTATTTGTG (site TAGGAATCTCC) | 2.13 |
| TAGGAATCATGGACCGGTTTTCCCGGTAATCCGTATTTGTG (site TAGGAATCTCG) | 2.63 |
| TAGGAATCATGGACCGGTTTTCCCGGTAATCCGTATTTGTG (site TAGGAATCTCT) | 2.59 |
| TAGGAGTCATGGACCGGTTTTCCCGGTAATCCGTATTTGCG (site TAGGAATCTCG) | 3.12 |
| TAGGAGTCATGGACCGGTTTTCCCGGTAATCCGTATTTGCG (site TAGGACTCTCG) | 1.24 |
| TAGGAGTCATGGACCGGTTTTCCCGGTAATCCGTATTTGCG (site TAGGAGTCTCG) | 3.24 |
| TAGGAGTCATGGACCGGTTTTCCCGGTAATCCGTATTTGCG (site TAGGATTCTCG) | 0.951 |
| TAGGCCGCATGGACCGGTTTTCCCGGTAATCCGTATTTGTG (site CCATTGACTTT) | 0.00523 |
| TAGGCTTCATGGACCGGTTTTCCCGGTAATCCGTATTTGGT (site TAGACTTCTAC) | 0.0923 |
| TAGGCTTCATGGACCGGTTTTCCCGGTAATCCGTATTTGGT (site TAGCCTTCTAC) | 0.0146 |
| TAGGCTTCATGGACCGGTTTTCCCGGTAATCCGTATTTGGT (site TAGGCTTCTAC) | 1.54 |
| TAGGCTTCATGGACCGGTTTTCCCGGTAATCCGTATTTGGT (site TAGTCTTCTAC) | 0.0132 |
| TAGGGAACATGGACCGGTTTTCCCGGTAATCCGTATTTGGC (site TAGGGAACTGC) | 1.53 |
| TAGGTTGCATGGACCGGTTTTCCCGGTAATCCGTATTTGTA (site TAGGTTGCTTA) | 2.39 |
| TAGTAACCATGGACCGGTTTTCCCGGTAATCCGTATTTGAG (site TAGTAACCTCT) | 0.00753 |
| TAGTGCCCATGGACCGGTTTTCCCGGTAATCCGTATTTGGC (site TAGTGCCCTGC) | 0 |
| TAGTGTTCATGGACCGGTTTTCCCGGTAATCCGTATTTGCA (site TAGTGTTCTTG) | 2.49 |
